Laboratory results from patent US9649292B2, “Method for treating prostate cancer and/or gastrointestinal cancer” (King Fahd University of Petroleum and Minerals, priority 2015, dated 2017).

Legend:
SGC7901 cells [1] = details: cited from earlier work; for cytotoxicity with respect to cisplatin: SGC7901 cells
PC3 cells [2] = details: cited from earlier work
[3] = system: chronic lymphocytic leukemia cells (CLL); details: cited from earlier work
PC3 cells [4] = assay: In vitro cytotoxic MTT assay, IC50; format: cell-based, human; details: 72 h exposure
Description: (§1) Human prostate PC3 and gastric SGC7901 cells were used throughout the examples of the present disclosure. Cells were cultured in Dulbecco's Modified Eagle Medium (DMEM) supplemented with 10% fetal calf serum (FCS), penicillin (100 kU L^−1) and streptomycin (0.1 g L^−1) at 37° C. in a 5% CO2-95% air atmosphere. Human gastric SGC7901 cells and prostate PC3 were incubated with these compounds at fixed concentrations or with water as a control to assess the inhibitory effect on cell growth. […] The cell survival versus drug concentration is plotted. Cytotoxicity was evaluated in vitro with reference to the IC50 value. The half maximal inhibitory concentration (IC50) is a measure of the effectiveness of a compound to inhibit biological or biochemical functions. According to the FDA, IC50 represents the concentration of a drug/compound/complex that is required for 50% inhibition in vitro. It is evaluated from the survival curves as the concentration needed for a 50% reduction of survival. IC50 values are expressed in μM. The IC50 values were calculated from dose-response curves obtained in replicate experiments.
(§2) The in vitro cytotoxic effect of mixed ligand gold(III) diamine complexes against androgen-resistant prostate PC3 and human gastric SGC7901 cancer cells were studied using MTT assay. […]

SGC7901 cells [5] = assay: In vitro cytotoxic MTT assay, IC50; format: cell-based, human; details: 72 h exposure
Description: as §1, §2

[6] = Cyclic voltammetry in phosphate buffer; format: physicochemical; details: phosphate buffer pH 7.4, platinum electrode, 50 mV/s, 1.0 mM
Description: The electrochemical experiments were performed at room temperature using a potentiostat (SP-300, Bio-Logic Science Instruments) controlled by EC-Lab v10.34 software package. The electrochemical experiments were performed at room temperature. All the measurements were performed on solutions de-aerated by bubbling ultra-pure nitrogen for 15 min. The values of reduction potential here reported were measured against a saturated calomel electrode (SCE). The cyclic voltammetry of the compounds 1, 2 and 3 were measured at scan rate of 50 mV/s on a reference buffer (40 mM phosphate, 4 mM NaCl, pH 7.4) using platinum as working electrode and graphite as a counter electrode with a concentration of 1.0 mM at room temperature. Ferrocene was used as pseudo reference to calibrate the working electrode. The couple FeIII/II formal potential of ferrocene occur at E^o/=+0.44 V (vs SCE) in 0.1 MBu4NPF6 solution in CH3CN solvent which is similar to the report value under the same experimental condition [Hans J, Beckmann A, Kruger H-J (1999) Stabilization of Copper(III) ions with deprotonated hydroxyiminoamide ligands: syntheses, structures, and electronic properties of Copper(III) and Copper(III) complexes. Eur J Inorg Chem 1:163-172—incorporated herein by reference in its entirety]. Conversion to values vs ENH was obtained upon adding +0.24 V to the corresponding SCE values.
Gold(III) complexes 1, 2 and 3 show one irreversible reduction process in which the controlled potential coulometry involves three electrons per mole. The occurrence of Au(III)/Au(0) reduction is visually indicated by the appearance of a thin gold layer deposited on the platinum electrode surface after exhaustive electrolysis (Ew, −0.7 V).

PC3 cells [7] = assay: MTT assay for antiproliferative effects at fixed concentration; format: cell-based, human; details: PC3, 10 μM, 24 and 72 h
Description: (§3) An MTT assay was used to obtain the number of living cells in the sample. Human gastric cancer SGC7901 and prostate cancer PC3 cells were seeded on 96-well plates at a predetermined optimal cell density, i.e. ca. 6,000 cells/100 μL per well in 96-well plates, to ensure exponential growth in the duration of the assay. After 24 h pre-incubation, the growth medium was replaced with the experimental medium containing the appropriate drug, using one of gold(III) compounds 1, 2 and 3 or a control using water. Six duplicate wells were set up for each sample, and cells untreated with drug served as a control. In one set of culture plates, human gastric cancer SGC7901 and human prostate PC3 cells were treated with 10 μM compounds 1, 2 and 3 as the drug and the control (water) for 24, 48 and 72 h. In other sets, the compounds 1, 2 and 3 with different concentration, i.e. 10, 20 and 30 μM, were employed to determine the growth inhibitory effect for both PC3 and SGC7901cells separately. After incubation, 10 μL MTT (6 g/L, Sigma) was added to each well and the incubation was continued for 4 h at 37° C. After removal of the medium, MTT stabilization solution [dimethylsulfoxide (DMSO): ethanol (C2H5OH)=1:1 in v/v ratio] was added to each well, and shaken for 10 min until all crystals were dissolved. Then, the optical density was detected in a micro plate reader at 550 nm wavelength using an Enzyme-Linked Immuno-Sorbent Assay (ELISA) reader. After being treated with gold(III) complexes 1, 2 and 3, the cell viability was examined by MTT assay. Each assay was performed in triplicate. An MTT assay for the inhibitory effect has been used for compounds 1, 2 and 3 against PC3 and SGC7901 cells. These cells were treated with various concentrations of compounds 1, 2 and 3 for 24-72 h.

SGC7901 cells [8] = assay: as above; format: cell-based, human; details: SGC7901, 10 μM, 24 and 72 h
Description: as §3

[9] = Stability by 1H and 13C NMR in D2O and DMSO-d6/D2O; format: physicochemical; details: DMSO-d6/D2O (2/1 v/v), room temperature
Description: The stability of complexes 1, 2 and 3 were tested in water as well as in a mixture of solvents i.e. DMSO/water (2/1 in v/v ratio) by ^1H and ^13C NMR measurements. To investigate the structural stability of the complexes, NMR spectra of the complexes dissolved in D2O; and in mixed DMSO-d6/D2O (2/1 in v/v ratio) solution were obtained just after dissolution, 24 h and 1 week at room temperature in mixed DMSO-d6/D2O and at 37° C. in D2O. At least 20 mg of complexes 1, 2 and 3 in 1 mL D2O at 37° C.; and in 1 mL DMSO-d6/D2O (2/1:v/v) at room temperature were subjected to ^1H and ^13C NMR measurements and followed by their spectral analysis. Immediately after dissolution of complexes 1, 2 and 3 in the respective solvents and duplicate samples were then stored at room temperature and 37° C., respectively, and analyzed again after 24 h and 1 week in order to determine stability of complexes. Since the complexes were not used beyond a week after dissolution, so NMR measurements were limited to one week.
NMR spectra of the complexes were obtained upon immediate dissolution to serve as reference spectra and later at 24 h and after 7 days at 37° C. in D2O and at room temperature in mixed DMSO-d6/D2O in order to determine their stability. […] For example, FIGS. 12A-B and 13A-B illustrated, respectively, the ^1H and ^13C NMR profiles of the compound 1 at just after mixing and after 7 days.

Compound | cytotoxicity with respect to cisplatin (SGC7901 cells [1]) | Ep, peak potential for reduction vs. ENH [6] [V] | order of time dependent antiproliferative effect (PC3 cells [7]) | order of time dependent antiproliferative effect (SGC7901 cells [8]) | also measured
NCCN.[Au+3].[Cl-].[Cl-].[Cl-] [[(en)AuCl2]Cl] | almost two fold more cytotoxic |  |  |  | lower cytotoxicity as compared to cisplatin (PC3 cells [2]): 7-9 fold; cytotoxicity profile compared to cisplatin [3]: comparable to cisplatin
N.N.[Cl][Pt][Cl] [Cisplatin] |  |  |  |  | intrinsic resistance of SGC7901 relative to PC3 cells (SGC7901 cells [1]; SGC7901 vs PC3): 7-8 fold; IC50 (PC3 cells [4]): 1.1 µM; IC50 (SGC7901 cells [5]): 7.3 µM
NCCN.NCCN.[Au+3].[Cl-].[Cl-].[Cl-] [[Au(en)2]Cl3] | slightly lower cytotoxicity |  |  |  | cytotoxic effect compared to cisplatin (PC3 cells [2]): comparable to that of cisplatin
NCCN.N[C@H]1CCCC[C@@H]1N.[Cl][Au]([Cl])[Cl] [Complex 3, (S,S)-(+)-1,2-diaminocyclohexane ethylenediamine gold(III) chloride] |  | 0.51 | complex 1>complex 3>complex 2 | complex 1>complex 3>complex 2 | dissociation of ethylenediamine (en) after 7 days [9]: 25%
NCCN.N[C@@H]1CCCC[C@@H]1N.[Cl][Au]([Cl])[Cl] [Complex 1, cis-1,2-diaminocyclohexane ethylenediamine gold(III) chloride] |  | 0.49 | complex 1>complex 3>complex 2 | complex 1>complex 3>complex 2 | 
NCCN.N[C@@H]1CCCC[C@H]1N.[Cl][Au]([Cl])[Cl] (racemic) [Complex 2, trans-(±)-1,2-diaminocyclohexane ethylenediamine gold(III) chloride] |  | 0.46 | complex 1>complex 3>complex 2 | complex 1>complex 3>complex 2 | 
